What was measured:
neuroretina = assay: IVT injection of naked pVAX2-Luc followed by gas injection and/or ET, luciferase in neuroretina (Example 1); type: in vivo, rat; settings: IVT pre-injection 30 min before plasmid, Indocyanin Green 2.5 mg/ml, Polysorbate 80 0.2 mg/ml
Method: FIG. 2: Illustrates the intracellular delivery of naked plasmids and gene expression in the neuroretina (FIG. 2A) and the RPE-choroid complex (FIG. 2B) of IVT pre-injection of 10 μl of the corticosteroid pharmaceutical specialty KENACORT® at 20 mg/ml (triamcinolone acetonide (TA) as active agent and polysorbate 80 as excipient), Indocyanine Green at 2.5 mg/ml or Polysorbate 80 at 0.2 mg/ml 30 min before IVT injection of the plasmid pVAX2-Luc (30 μg in 10 μl in NaCl 0.45%), followed by gas injection or ET application [8×(80V; 20 ms; 5 Hz)] or combination of both immediately upon IVT injection of the plasmid. Luminescence is expressed in counts/s (cps). The results are expressed as the mean±sem of 4 independent experiments. […]
The luciferase activity was assessed on 10 μl of sample (tissue lysate supernatant or ocular fluid) placed in a white 96 wells plate. […]
The effect of various chemical agents on the RPE-choroid complex gases injection or electrotransfer-induced intracellular delivery of the naked plasmid pVAX2-Luc and gene expression of the luciferase in neuroretina was evaluated. […]
(§1) 7 days after the treatment the animals were sacrificed, the eyes were enucleated and dissected under an optical microscope to isolate the neuroretina and the RPE-choroid complex and the luminescence of the luciferase was measured.

RPE-choroid complex = assay: IVT injection of naked pVAX2-Luc followed by gas injection and/or ET, luciferase in RPE-choroid complex (Example 1); type: in vivo, rat; settings: IVT pre-injection 30 min before plasmid, Indocyanin Green 2.5 mg/ml, Polysorbate 80 0.2 mg/ml
Method: FIG. 2: Illustrates the intracellular delivery of naked plasmids and gene expression in the neuroretina (FIG. 2A) and the RPE-choroid complex (FIG. 2B) of IVT pre-injection of 10 μl of the corticosteroid pharmaceutical specialty KENACORT® at 20 mg/ml (triamcinolone acetonide (TA) as active agent and polysorbate 80 as excipient), Indocyanine Green at 2.5 mg/ml or Polysorbate 80 at 0.2 mg/ml 30 min before IVT injection of the plasmid pVAX2-Luc (30 μg in 10 μl in NaCl 0.45%), followed by gas injection or ET application [8×(80V; 20 ms; 5 Hz)] or combination of both immediately upon IVT injection of the plasmid. Luminescence is expressed in counts/s (cps). The results are expressed as the mean±sem of 4 independent experiments.
Rats receiving intravitreal injection of pVAX2-luc were sacrificed on day 7 after treatment. The eyes were enucleated and dissected under an operating microscope, the neuroretina and RPE/choroid complex removed, snap frozen in liquid nitrogen and kept at −80° C. until tested.
Tissue samples were then homogenized in 0.3 ml (rat neuroretina and RPE/choroid complex) or 1.0 ml (mouse tibialis anterior muscle) of cell culture lysis reagent (Promega, Charbonniere, France) supplemented with protease inhibitor cocktail (Boehringer, Mannheim, Germany) (one tablet for 50 ml). After centrifugation 10 min at 15 000 g and 4° C., tissue lysate supernatant was collected.
(§2) The luciferase activity was assessed on 10 μl of sample (tissue lysate supernatant or ocular fluid) placed in a white 96 wells plate.
(§3) The detector was a Wallac Victor luminometer (EG&G Wallac, Evry, France) which adds 50 μl of luciferase assay substrate or Gaussia luciferase assay substrate (Promega) to the sample (tissue lysate supernatant or ocular fluid respectively) and integrates the light produced by the sample during 10 s. Results are given for the whole sample in counts per second (cps) or in cps/ml/mg of protein.
The effect of various chemical agents on the RPE-choroid complex gases injection or electrotransfer-induced intracellular delivery of the naked plasmid pVAX2-Luc and gene expression of the luciferase in neuroretina was evaluated.
Thirty μg of naked pVAX2-Luc in 10 μl in NaCl 0.45% was injected intravitreously in one eye of anaesthetized rats (the contra lateral eye was used as control) immediately followed by gas injection (C2F6 or SF6) or ET application [8×(80V; 20 ms; 5 Hz)] or combination of both. […]
as §1

ciliary muscle = assay: Luciferase expression in aqueous humor after transfection of the ciliary muscle with naked pGLuc (Example 5); type: in vivo, rat; settings: for Luciferase (cps) Mean ± sem, level of expression in aqueous humor: pre-treatment 20 mg/ml (10 μl) 45 min before 15 μg pGLuc, day 7, background 99.3 ± 1.5, water 103.5 ± 3.2
Method: FIG. 6: Illustrates the intracellular delivery of naked plasmids to a smooth muscle, the ciliary muscle, and subsequent gene expression in ocular media. Intramuscular pre-injection of triamcinolone acetonide (TA) or anecortave acetate (AA) at 20 mg/ml (10 μl) was carried out 45 min before intramuscular injection of the naked plasmid pGLuc (15 μg in 10 μl in NaCl 0.45%). No transfection or water instead of corticosteroid was used as control. Luminescence is expressed in counts/s (cps). The results are expressed as the mean±sem of 4 to 6 independent experiments.
To reach the ciliary muscle located below the sclera posterior to the limbus, the intra ciliary muscle injection was carried out through a tunneled corneal incision. When the needle had crossed the limbus, it was inserted slightly deeper for a distance of 1 mm and the solutions were injected.
Rats receiving injection of pGLuc in the ciliary muscle were sacrificed on day 7 after treatment. Intraocular fluids were collected on enucleated eyes, clarified by centrifugation and the supernatants stored at −20° C. until tested.
as §2, §3
Fifteen μg of naked pGLuc in 10 μl in NaCl 0.45% was injected in the ciliary muscle of one eye of anaesthetized rats (the contra lateral eye was used as control).
The plasmid injection was preceded 45 min before by intramuscular injection of 10 μl of triamcinolone acetonide (TA, 20 mg/ml) or anecortave acetate (AA, 20 mg/ml), a synthetic corticosteroid.
No injection and pre-injection with water were performed as controls.

tibialis anterior muscle = assay: Luciferase expression in tibialis anterior muscle after injection of naked pVAX2-Luc (Example 6); type: in vivo, mouse; settings: water control 6.749
Method: Luminescence is expressed in counts/s/ml/mg of protein (cps/ml/mg). The results are expressed as the mean±sem of 3 independent experiments. […] Intramuscular injection in the mouse tibialis anterior muscle was carried out with a 30 G needle on a 300 μl microfine syringe (BD Biosiences). Mouse receiving injection of pVAX2-luc in the tibialis anterior muscle were sacrificed on day 7 after treatment. The tibialis anterior muscle was removed, snap frozen in liquid nitrogen and kept at −80° C. until tested. Tissue samples were then homogenized in 0.3 ml (rat neuroretina and RPE/choroid complex) or 1.0 ml (mouse tibialis anterior muscle) of cell culture lysis reagent (Promega, Charbonniere, France) supplemented with protease inhibitor cocktail (Boehringer, Mannheim, Germany) (one tablet for 50 ml). After centrifugation 10 min at 15 000 g and 4° C., tissue lysate supernatant was collected. The luciferase activity was assessed on 10 μl of sample (tissue lysate supernatant or ocular fluid) placed in a white 96 wells plate. The detector was a Wallac Victor luminometer (EG&G Wallac, Evry, France) which adds 50 μl of luciferase assay substrate or Gaussia luciferase assay substrate (Promega) to the sample (tissue lysate supernatant or ocular fluid respectively) and integrates the light produced by the sample during 10 s. Results are given for the whole sample in counts per second (cps) or in cps/ml/mg of protein. One hundred μg of pVAX1-LacZ or thirty μg of naked pVAX2-Luc in 100 or 30 μl in NaCl 0.45% were, respectively, injected into the tibialis anterior muscle of rats or into the tibialis anterior muscle of mice. In the mice, the plasmid injection was preceded 30 min before by intramuscular injection of 30 μl of triamcinolone acetonide (TA) or dexamethasone (DEX) at 2 or 20 mg/ml, or soluble DEX at 4 mg/ml. Pre-injection with water was performed as control.

[1] = pre-treatment 2 mg/ml (30 μl) 30 min before plasmid
[2] = pre-treatment 20 mg/ml (30 μl) 30 min before plasmid

Molecule: CC1(C)C(/C=C/C=C/C=C/C=C2\N(CCCCS(=O)(=O)O)c3ccc4ccccc4c3C2(C)C)=[N+](CCCCS(=O)(=O)[O-])c2ccc3ccccc3c21 [Indocyanin Green, indocyanine green]
- efficiency in improving transfection, by contrast with KENACORT (neuroretina): less efficient
- improvement of the efficacy of gases injection, by contrast with KENACORT (RPE-choroid complex): less efficient
- improvement of the efficiency of ET (RPE-choroid complex): improved, in a certain extent

Molecule: CC(=O)OCC(=O)[C@@]1(O)CC[C@H]2[C@@H]3CCC4=CC(=O)CC[C@]4(C)C3=CC[C@@]21C [AA, anecortave acetate]
- level of expression of Luciferase in the aqueous humor compared to naked plasmid alone (ciliary muscle; pre-injection 20 mg/ml (10 μl) 45 min before 15 μg pGLuc): dramatically improve
- Luciferase (cps) Mean ± sem, level of expression in aqueous humor (ciliary muscle): 122.5 ± 7.2 cps

Molecule: C[C@@H]1C[C@H]2[C@@H]3CCC4=CC(=O)C=C[C@]4(C)[C@@]3(F)[C@@H](O)C[C@]2(C)[C@@]1(O)C(=O)CO [DEX, dexamethasone]
- Luciferase (cps) means (10^6) (tibialis anterior muscle; [1]): 8.526 10^6 cps
- Luciferase (cps) means (10^6) (tibialis anterior muscle; [2]): 30.13 10^6 cps

Molecule: polysorbate 80
- efficiency in improving transfection, by contrast with KENACORT (neuroretina): less efficient
- improvement of the efficacy of gases injection, by contrast with KENACORT (RPE-choroid complex): less efficient
- improvement of the efficiency of ET (RPE-choroid complex): improved, in a certain extent

Molecule: CC1(C)O[C@@H]2C[C@H]3[C@@H]4CCC5=CC(=O)C=C[C@]5(C)[C@@]4(F)[C@@H](O)C[C@]3(C)[C@]2(C(=O)CO)O1 [TA, triamcinolone acetonide]
- Luciferase (cps) Mean ± sem, level of expression in aqueous humor (ciliary muscle): 122.3 ± 6.8 cps
- Luciferase (cps) means (10^6) (tibialis anterior muscle; [1]): 6.849 10^6 cps
- Luciferase (cps) means (10^6) (tibialis anterior muscle; [2]): 6.431 10^6 cps

From patent publication US9315829B2, “Methods for intracellular delivery of nucleic acids” (UNIVERSITE PARIS DESCARTES, priority 2010, dated 2016)
